Results as given in US20250051375A1, “ANTI-HIV COMPOUNDS” (Gilead Sciences, Inc., priority 2023, published 2025).
Values after ≈ are worked out from the molar mass of the structure shown. Read-outs that look alike come from different tables or passages of the source.

Columns and labels:
[1] = Intestinal S9 Assay (dog GI S9); format: in vitro ADME; conditions: 1.0 mg/mL S9 protein; for half-life at 2 μM: dog, TRIS pH 7.4, read-out: Dog GI S9 T½
Protocol: (§1) Reagents. Stock solutions of test compounds in dimethyl sulfoxide (DMSO) having a final concentration of 10 mM were prepared and used in all experiments. Sekisui XenoTech (Kansas City, KS) provided pooled intestinal S9 fractions. All other chemicals were purchased from Sigma-Aldrich (St. Louis, MO) or VWR (West Chester, PA). Internal Standard/Quench (IS/Q) used to stop reactions was 100 nM labetalol in (by volume) formic acid (1%) and acetonitrile (99%).
(§2) Intestinal S9 Assay: For each test compound, an aliquot of the test compound was added to S9 stock diluted with TRIS buffer (100 mM TRIS, 1 mM ZnCl2, 1 mM MgCl2), pH 7.4, to obtain an incubation protein concentration of 1.0 mg/mL. The incubation was initiated by the addition of the substrate to the S9 reaction mixture to a final concentration of 2 μM. At 0, 10, 20, 30, 60 and 120 min, 25 μL aliquots of the reaction mixture were transferred to plates containing 225 μl of IS/Q solution. After quenching, the plates were centrifuged at 3000×g for 30 minutes. 150 μL aliquots of each supernatant were transferred to new plates and 150 μL water was added. Aliquots (10 μL) of the prepared samples were analyzed on a Thermo Q-Exactive mass spectrometer as described below.
(§3) Liquid Chromatography-Mass Spectrometry: Quantification of test compounds and control substrate was performed by analyte/internal standard peak area ratio (PAR) values measured on a Thermo Q-Exactive mass spectrometer coupled to a Dionex UltiMate 3000 HPLC with a Leap Technologies HTC PAL autosampler. The column used for analysis was a Thermo Scientific Hypersil GOLD (1.9 μm particle size, 50×2.1 mm). Mobile phase A consisted of 0.1% (v/v) formic acid in water. Mobile phase B consisted of 0.1% (v/v) formic acid in acetonitrile. Elution of analytes was achieved by a series of linear gradients varying the proportions of A and B. The mass spectrometer was calibrated on a weekly basis and mass tolerance of 5 ppm was used.
(§4) Data Analysis. Metabolic stabilities were determined by measuring the rates of disappearance of test compound and positive control substrate. Data (% of substrate remaining) were plotted on a semi-log scale and fitted using an exponential decline model:
(§5) where • Ct% of substrate remaining at time=t • C0% of substrate remaining at time=0 • t time • T½ half-life • The Half-life (T½) is determined by the following equation:
(§6) [formula] • Assuming a first-order reaction, the slope (k) is extrapolated from the aforementioned plotted data.

PBS Stability Assay = format: physicochemical; conditions: buffer, pH 7.4, 2 μM, phosphate buffered saline pH 7.4; read-out: PBS T½
Outline: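 Test compound at 2 μM final was incubated in PBS, pH 7.4, and sampled at 0, 10, 20, 30, 60 and 120 min into acetonitrile/1% formic acid quench with labetalol internal standard. Remaining compound was quantified by LC-MS peak-area ratio, and half-life came from a first-order exponential fit.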

[2] = Intestinal S9 Assay (human GI S9); format: in vitro ADME; conditions: 1.0 mg/mL S9 protein; for half-life at 2 μM: human, TRIS pH 7.4, read-out: Human GI S9 T½
Protocol: as §1, §2, §3, §4, §5, §6

[3] = biological target: bovine intestinal alkaline phosphatase (Bos taurus (Bovine), UniProt P19111); experiment: BiALP: conversion by bovine intestinal alkaline phosphatase; format: in vitro ADME; conditions: 2 μM substrate, 100 ng/mL iALP, Tris pH 7.8, 37° C., 60 minutes
Outline: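 Compounds at 2 μM final were incubated 60 min at 37° C in 0.1 M Tris-HCl pH 7.8 with 1 mM MgCl2 and 1 mM ZnCl2, with or without 100 ng/mL iALP (0.01 units/mL). Samples were quenched with acetonitrile/formic acid containing labetalol. Conversion was quantified by LC-MS peak area ratios against a 2 μM product standard.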

Solubility in FaSSIF = conditions: 23 °C, pH 6.5, fassif, thermodynamic from solid
Outline: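 Concentration measured by HPLC-UV after solid compound was dosed at 5 mg/mL into pH 6.5 fasted-state simulated intestinal fluid containing taurocholate and lecithin (4:1 molar) and vortexed.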

HIV-1 IIIB strain = experiment: MT-4 HIV Wild Type Virus Infection Assay (IIIB Virus); format: cell-based; conditions: Human immunodeficiency virus 1, IIIB, MT4, 120 h, MT-4 cells acutely infected with HIV-1 IIIB, 5 day incubation, Cell-titer glo
Outline: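 MT-4 cells at 2×10^6 cells/ml in RPMI/10% FBS were acutely infected with HIV-1 IIIB for 1 h at 37° C, diluted 25× and added to serially diluted compounds. After 5 days at 37° C, viability read by CellTiter-Glo luminescence; EC50 from dose-response curves.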

Sequence of bovine intestinal alkaline phosphatase (P19111 20-506): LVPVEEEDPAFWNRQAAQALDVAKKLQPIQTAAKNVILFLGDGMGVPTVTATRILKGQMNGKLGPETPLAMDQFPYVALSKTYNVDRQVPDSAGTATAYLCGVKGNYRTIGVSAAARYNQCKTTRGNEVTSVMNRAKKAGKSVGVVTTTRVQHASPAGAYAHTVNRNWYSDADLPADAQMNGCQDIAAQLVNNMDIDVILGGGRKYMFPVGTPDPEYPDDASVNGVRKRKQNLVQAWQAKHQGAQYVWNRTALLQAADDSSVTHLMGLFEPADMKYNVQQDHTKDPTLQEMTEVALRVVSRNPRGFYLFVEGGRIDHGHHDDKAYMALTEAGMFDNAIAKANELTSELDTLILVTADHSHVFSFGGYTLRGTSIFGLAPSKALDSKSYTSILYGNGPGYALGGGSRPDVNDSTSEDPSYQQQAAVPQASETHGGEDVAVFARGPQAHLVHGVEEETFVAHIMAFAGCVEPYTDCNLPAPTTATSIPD

Compound: COC(=O)N[C@H](C(=O)N[C@@H](Cc1ccc(C#Cc2cnc(N3CC4CCC(C3)N4C3COC3)nc2)cc1)[C@H](CN(Cc1c(F)cc(-c2ccn(C(F)F)n2)cc1F)NC(=O)[C@@H](NC(=O)OC)C(C)(C)C(F)(F)F)OC(=O)CC(C)(C)c1c(CC(=O)Nc2ccc(OC)c(S(=O)(=O)O)c2)cc(C)cc1OP(=O)(O)O)C(C)(C)C(F)(F)F [Example 107]
- half-life at 2 μM [1]: 2.21 h
- half-life at 2 μM (PBS Stability Assay): 6.36 h
- half-life at 2 μM [2]: 4.11 h
- [Compound] [3]: 1468.1 nM
- solubility at 2 h (Solubility in FaSSIF): 3440 µg/mL (≈ 2060 µM)
- EC50 (HIV-1 IIIB strain): 317 nM

Compound: COC(=O)N[C@H](C(=O)N[C@@H](Cc1ccc(C#Cc2cnc(N3CC4CCC(C3)N4C3COC3)nc2)cc1)[C@H](CN(Cc1c(F)cc(-c2ccn(C(F)F)n2)cc1F)NC(=O)[C@@H](NC(=O)OC)C(C)(C)C(F)(F)F)OC(=O)CC(C)(C)c1c(CC(=O)N2C[C@@H](C(=O)O)C[C@H]2C(=O)O)cc(C)cc1OP(=O)(O)O)C(C)(C)C(F)(F)F [Example 10]
- Dog GI S9 [Intermediate A] ([1]; 2 μM, TRIS pH 7.4): 228.1 nM
- Dog GI S9 [Intermediate A] % ([1]; 2 μM, TRIS pH 7.4): 18.4%
- half-life at 2 μM [1]: 4.24 h
- half-life at 2 μM (PBS Stability Assay): 9.92 h
- Human GI S9 [Intermediate A] ([2]; 2 μM, TRIS pH 7.4): 86.8 nM
- Human GI S9 [Intermediate A] % ([2]; 2 μM, TRIS pH 7.4): 7.3%
- half-life at 2 μM [2]: 9.22 h
- [Compound] [3]: 1868.8 nM
- biALP Intermediate A or [Amprenavir] (% of total) [3]: 4.9 % of total
- [Intermediate A] or [Amprenavir] ([3]; parent formed): 95.5 nM
- solubility at 2 h (Solubility in FaSSIF): 3120 µg/mL (≈ 1920 µM)
- EC50 (HIV-1 IIIB strain): 418 nM

Compound: COC(=O)N[C@H](C(=O)N[C@@H](Cc1ccc(C#Cc2cnc(N3CC4CCC(C3)N4C3COC3)nc2)cc1)[C@H](CN(Cc1c(F)cc(-c2ccn(C(F)F)n2)cc1F)NC(=O)[C@@H](NC(=O)OC)C(C)(C)C(F)(F)F)OC(=O)CC(C)(C)c1c(CC(=O)NC(CCP(=O)(O)O)C(=O)O)cc(C)cc1OP(=O)(O)O)C(C)(C)C(F)(F)F (stereo partly shown) [Example 35]
- half-life at 2 μM [1]: 0.235 h
- half-life at 2 μM (PBS Stability Assay): 3.27 h
- half-life at 2 μM [2]: 3.21 h
- [Compound] [3]: 2145.2 nM
- solubility at 2 h (Solubility in FaSSIF): 3560 µg/mL (≈ 2160 µM)
- EC50 (HIV-1 IIIB strain): 65.7 nM

Compound: COC(=O)N[C@H](C(=O)N[C@@H](Cc1ccc(C#Cc2cnc(N3CC4CCC(C3)N4C3COC3)nc2)cc1)[C@H](CN(Cc1c(F)cc(-c2ccn(C(F)F)n2)cc1F)NC(=O)[C@@H](NC(=O)OC)C(C)(C)C(F)(F)F)OC(=O)CC(C)(C)c1c(C)cc(C(=O)O)cc1OP(=O)(O)O)C(C)(C)C(F)(F)F [Example 3, 4-((5S,10S)-8-(4-(1-(difluoromethyl)-1H-pyrazol-3-yl)-2,6-difluorobenzyl)-14-methyl-10-((1S)-2-(4-((2-(8-(oxetan-3-yl)-3,8-diazabicyclo[3.2.1]octan-3-yl)pyrimidin-5-yl)ethynyl)phenyl)-1-((S)-4,4,4-trifluoro-2-((methoxycarbonyl)amino)-3,3-dimethylbutanamido)ethyl)-3,6,12-trioxo-5-(1,1,1-trifluoro-2-methylpropan-2-yl)-2,11-dioxa-4,7,8-triazapentadecan-14-yl)-3-methyl-5-(phosphonooxy)benzoic acid]
- half-life at 2 μM [1]: 0.685 h
- half-life at 2 μM (PBS Stability Assay): 4.19 h
- half-life at 2 μM [2]: 1.98 h
- [Compound] [3]: 1197.7 nM
- EC50 (HIV-1 IIIB strain; read-out: EC50): 96.6 nM

Compound: COC(=O)N[C@H](C(=O)N[C@@H](Cc1ccc(C#Cc2cnc(N3CC4CCC(C3)N4C3COC3)nc2)cc1)[C@H](CN(Cc1c(F)cc(-c2ccn(C(F)F)n2)cc1F)NC(=O)[C@@H](NC(=O)OC)C(C)(C)C(F)(F)F)OC(=O)CC(C)(C)c1c(CC(=O)Nc2cccc(S(=O)(=O)O)c2)cc(C)cc1OP(=O)(O)O)C(C)(C)C(F)(F)F [Example 105]
- half-life at 2 μM [1]: 4.85 h
- half-life at 2 μM (PBS Stability Assay): 5.51 h
- half-life at 2 μM [2]: 9.3 h
- [Compound] [3]: 1626.1 nM
- EC50 (HIV-1 IIIB strain): 217 nM

Compound: COC(=O)N[C@H](C(=O)N[C@@H](Cc1ccc(C#Cc2cnc(N3CC4CCC(C3)N4C3COC3)nc2)cc1)[C@H](CN(Cc1c(F)cc(-c2ccn(C(F)F)n2)cc1F)NC(=O)[C@@H](NC(=O)OC)C(C)(C)C(F)(F)F)OC(=O)CC(C)(C)c1c(CC(=O)N[C@@H](CS(=O)(=O)O)C(=O)O)cc(C)cc1OP(=O)(O)O)C(C)(C)C(F)(F)F [Example 32]
- half-life at 2 μM [1]: 1 h
- half-life at 2 μM (PBS Stability Assay): 5.18 h
- half-life at 2 μM [2]: 3.87 h
- solubility at 2 h (Solubility in FaSSIF): 3400 µg/mL (≈ 2080 µM)
- EC50 (HIV-1 IIIB strain): 137 nM

Compound: COC(=O)N[C@H](C(=O)N[C@@H](Cc1ccc(C#Cc2cnc(N3CC4CCC(C3)N4C3COC3)nc2)cc1)[C@H](CN(Cc1c(F)cc(-c2ccn(C(F)F)n2)cc1F)NC(=O)[C@@H](NC(=O)OC)C(C)(C)C(F)(F)F)OC(=O)CC(C)(C)c1c(CC(=O)N2CCC[C@H]2C(=O)O)cc(C)cc1OP(=O)(O)O)C(C)(C)C(F)(F)F [Example 79]
- half-life at 2 μM [1]: 9.38 h
- half-life at 2 μM [2]: 10.2 h
- [Compound] [3]: 2057.5 nM
- solubility at 2 h (Solubility in FaSSIF): 2680 µg/mL (≈ 1690 µM)
- EC50 (HIV-1 IIIB strain): 645 nM

Compound: COC(=O)N[C@H](C(=O)N[C@@H](Cc1ccc(C#Cc2cnc(N3CC4CCC(C3)N4C3COC3)nc2)cc1)[C@H](CN(Cc1c(F)cc(-c2ccn(C(F)F)n2)cc1F)NC(=O)[C@@H](NC(=O)OC)C(C)(C)C(F)(F)F)OC(=O)CC(C)(C)c1c(CC(=O)NC23CC4CC(C2)CC(C(=O)O)(C4)C3)cc(C)cc1OP(=O)(O)O)C(C)(C)C(F)(F)F [Example 108]
- half-life at 2 μM [1]: 4.46 h
- half-life at 2 μM [2]: 7.21 h
- [Compound] [3]: 2296.1 nM
- solubility at 2 h (Solubility in FaSSIF): < 1000 µg/mL
- EC50 (HIV-1 IIIB strain): 444 nM

Compound: COC(=O)N[C@H](C(=O)N[C@@H](Cc1ccc(C#Cc2cnc(N3CC4CCC(C3)N4C3COC3)nc2)cc1)[C@H](CN(Cc1c(F)cc(-c2ccn(C(F)F)n2)cc1F)NC(=O)[C@@H](NC(=O)OC)C(C)(C)C(F)(F)F)OC(=O)CC(C)(C)c1c(CC(=O)Nc2cc(C(=O)O)cc(S(C)(=O)=O)c2)cc(C)cc1OP(=O)(O)O)C(C)(C)C(F)(F)F [Example 109]
- half-life at 2 μM [1]: 2.23 h
- half-life at 2 μM [2]: 4.48 h
- [Compound] [3]: 1951.1 nM
- solubility at 2 h (Solubility in FaSSIF): < 1000 µg/mL
- EC50 (HIV-1 IIIB strain): 90.5 nM

Compound: COC(=O)N[C@H](C(=O)N[C@@H](Cc1ccc(C#Cc2cnc(N3CC4CCC(C3)N4C3COC3)nc2)cc1)[C@H](CN(Cc1c(F)cc(-c2ccn(C(F)F)n2)cc1F)NC(=O)[C@@H](NC(=O)OC)C(C)(C)C(F)(F)F)OC(=O)CC(C)(C)c1c(CC(=O)N2CCC[C@H]2C(=O)O)cccc1OP(=O)(O)O)C(C)(C)C(F)(F)F [Example 46]
- half-life at 2 μM [1]: 5.08 h
- half-life at 2 μM [2]: 7.41 h
- [Compound] [3]: 1864.7 nM
- solubility at 2 h (Solubility in FaSSIF): 2870 µg/mL (≈ 1830 µM)
- EC50 (HIV-1 IIIB strain): 190 nM

Compound: COC(=O)N[C@H](C(=O)N[C@@H](Cc1ccc(C#Cc2cnc(N3CC4CCC(C3)N4C3COC3)nc2)cc1)[C@H](CN(Cc1c(F)cc(-c2ccn(C(F)F)n2)cc1F)NC(=O)[C@@H](NC(=O)OC)C(C)(C)C(F)(F)F)OC(=O)CC(C)(C)c1c(CC(=O)N2C[C@H](O)C[C@H]2C(=O)O)cc(C)cc1OP(=O)(O)O)C(C)(C)C(F)(F)F [Example 58]
- half-life at 2 μM [1]: 7.23 h
- half-life at 2 μM [2]: 12.1 h
- [Compound] [3]: 1573.2 nM
- solubility at 2 h (Solubility in FaSSIF): 4460 µg/mL (≈ 2800 µM)
- EC50 (HIV-1 IIIB strain): 370 nM
